Measured values: patent US12643895B2, “Heteroaryl-substituted pyrazolo-pyridine protein kinase inhibitors for promoting liver regeneration or reducing or preventing hepatocyte death” (HepaRegeniX GmbH, priority 2019, dated 2026)

What was measured:
Format in all cases: biochemical
[1] = molecular target: T1, JNK1 (Homo sapiens, UniProt P45983); test: 33PanQinase radiometric kinase assay, JNK1 (off-target); conditions: ratio IC50(off-target)/IC50(MKK4)
T1 construct: purchased ProQinase GmbH, Freiburg, Germany (assay service)
T1 sequence (P45983 whole entry): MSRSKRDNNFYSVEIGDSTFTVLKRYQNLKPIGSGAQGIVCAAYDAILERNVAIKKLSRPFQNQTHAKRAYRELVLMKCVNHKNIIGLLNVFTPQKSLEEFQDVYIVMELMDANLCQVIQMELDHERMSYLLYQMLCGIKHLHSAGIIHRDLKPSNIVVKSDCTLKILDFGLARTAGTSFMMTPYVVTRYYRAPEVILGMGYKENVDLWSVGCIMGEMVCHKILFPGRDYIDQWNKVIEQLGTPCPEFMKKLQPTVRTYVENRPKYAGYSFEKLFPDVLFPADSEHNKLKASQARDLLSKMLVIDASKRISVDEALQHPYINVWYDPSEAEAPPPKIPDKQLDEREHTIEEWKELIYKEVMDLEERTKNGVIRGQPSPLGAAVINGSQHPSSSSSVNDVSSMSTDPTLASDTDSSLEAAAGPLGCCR
Procedure: (§1) The kinase activities of the compounds of the invention were measured using the 33PanQinase® Assay Service provided by ProQinase GmbH, Freiburg, Germany. Details of the assay conditions are disclosed on the website of ProQinase (https://www.proqinase.com/products-services-biochemical-assay-services/kinase-assays). In brief, all kinase assays were performed in 96-well FlashPlates™ from PerkinElmer (Boston, MA, USA) in a 50 μl reaction volume. The reaction cocktail was pipetted in four steps in the following order: • 20 μl of assay buffer (standard buffer) • 5 μl of ATP solution (in H2O) • 5 μl of test compound (in 10% DMSO) • 20 μl enzyme/substrate mix
(§2) The reaction cocktails were incubated at 30° C. for 60 minutes. The reaction is stopped with 50 μl of 2% (v/v) H3PO4, plates were aspirated and washed two times with 200 μl 0.9% (w/v) NaCl. Incorporation of ^33Pi was determined with a microplate scintillation counter (Microbeta, Wallac).
(§3) All assays were performed with a BeckmanCoulter/SAGIAN™ Core System.
(§4) In case of single concentration assays, the potency of the test compound is expressed as % residual activity. […] The fitting method used was a least-squares fit.
(§5) Selectivity of test compounds against BRaf, JNK1 and MKK7, altogether denominated as off-targets was calculated by the ratio of IC50 (off-target)/IC50 (MKK4) and categorized as follows: […]

[2] = molecular target: T2, BRaf (Homo sapiens, UniProt P15056); test: 33PanQinase radiometric kinase assay, BRaf (off-target); conditions: ratio IC50(off-target)/IC50(MKK4)
T2 construct: purchased ProQinase GmbH, Freiburg, Germany (assay service)
T2 sequence (P15056 whole entry): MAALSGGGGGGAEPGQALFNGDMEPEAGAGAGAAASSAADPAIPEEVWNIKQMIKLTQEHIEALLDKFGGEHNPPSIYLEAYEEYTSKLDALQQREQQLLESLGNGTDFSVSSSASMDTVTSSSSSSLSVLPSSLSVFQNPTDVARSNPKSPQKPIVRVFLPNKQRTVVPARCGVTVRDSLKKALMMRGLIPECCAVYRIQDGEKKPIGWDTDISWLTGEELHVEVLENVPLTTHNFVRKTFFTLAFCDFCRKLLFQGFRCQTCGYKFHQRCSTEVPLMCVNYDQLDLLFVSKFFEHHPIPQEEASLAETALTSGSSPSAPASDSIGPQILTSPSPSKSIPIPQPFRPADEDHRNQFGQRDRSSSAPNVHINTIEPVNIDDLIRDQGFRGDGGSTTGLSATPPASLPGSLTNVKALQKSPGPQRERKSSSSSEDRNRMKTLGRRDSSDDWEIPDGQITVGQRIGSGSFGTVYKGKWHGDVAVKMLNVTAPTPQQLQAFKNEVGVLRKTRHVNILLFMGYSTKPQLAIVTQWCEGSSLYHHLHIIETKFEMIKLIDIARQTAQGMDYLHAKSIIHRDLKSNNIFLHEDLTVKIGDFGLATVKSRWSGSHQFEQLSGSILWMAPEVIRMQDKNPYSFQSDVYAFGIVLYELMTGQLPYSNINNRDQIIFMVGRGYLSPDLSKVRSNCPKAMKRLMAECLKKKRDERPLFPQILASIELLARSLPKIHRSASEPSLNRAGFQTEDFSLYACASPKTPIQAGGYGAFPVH
Procedure: as §1, §2, §3, §4, §5

[3] = molecular target: T3, MKK7 (Homo sapiens, UniProt O14733); test: 33PanQinase radiometric kinase assay, MKK7 (off-target); conditions: ratio IC50(off-target)/IC50(MKK4)
T3 construct: purchased ProQinase GmbH, Freiburg, Germany (assay service)
T3 sequence (O14733 1-419): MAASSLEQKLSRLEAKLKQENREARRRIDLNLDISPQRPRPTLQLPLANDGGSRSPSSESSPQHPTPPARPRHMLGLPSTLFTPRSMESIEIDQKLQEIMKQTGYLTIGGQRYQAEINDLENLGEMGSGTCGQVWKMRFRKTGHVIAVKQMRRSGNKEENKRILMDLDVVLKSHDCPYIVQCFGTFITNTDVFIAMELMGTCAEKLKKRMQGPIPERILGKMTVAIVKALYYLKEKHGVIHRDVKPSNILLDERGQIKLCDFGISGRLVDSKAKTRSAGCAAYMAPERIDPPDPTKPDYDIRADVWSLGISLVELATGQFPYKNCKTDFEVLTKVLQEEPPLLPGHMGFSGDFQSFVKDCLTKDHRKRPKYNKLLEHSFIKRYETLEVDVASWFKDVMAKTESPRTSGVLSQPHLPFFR
Procedure: as §1, §2, §3, §4, §5

[4] = molecular target: T4, MKK4 (Homo sapiens, UniProt P45985); test: 33PanQinase radiometric kinase assay, MKK4; conditions: category based on IC50-values; ATP at apparent Km; read-out: Potency MKK4
T4 construct: purchased ProQinase GmbH, Freiburg, Germany (assay service)
T4 sequence (P45985 1-399): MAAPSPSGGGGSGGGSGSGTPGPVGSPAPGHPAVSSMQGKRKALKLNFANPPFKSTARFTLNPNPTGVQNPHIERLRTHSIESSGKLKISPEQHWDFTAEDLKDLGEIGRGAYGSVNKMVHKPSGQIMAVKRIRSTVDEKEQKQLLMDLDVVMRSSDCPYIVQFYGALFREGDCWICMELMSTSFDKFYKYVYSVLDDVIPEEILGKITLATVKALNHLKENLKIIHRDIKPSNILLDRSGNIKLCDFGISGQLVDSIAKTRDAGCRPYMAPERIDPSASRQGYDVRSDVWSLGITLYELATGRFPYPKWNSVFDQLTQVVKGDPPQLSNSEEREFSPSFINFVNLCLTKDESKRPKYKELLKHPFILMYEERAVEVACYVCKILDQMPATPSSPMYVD
Procedure: as §1, §2, §3, §4

Row | Selectivity JNK1 [1] | Selectivity Braf [2] | Selectivity MKK7 [3] | IC50 [4] [nM] | Compound
1 | +++ (IC50(off-target)/IC50(MKK4) > 100) | +++ (IC50(off-target)/IC50(MKK4) > 100) | +++ (IC50(off-target)/IC50(MKK4) > 100) | < 100 | CCCS(=O)(=O)Nc1c(F)ccc(C(=O)c2n[nH]c3ncc(-c4cnc(O)nc4)cc23)c1F [Example 16, N-(2,6-difluoro-3-(5-(2-hydroxypyrimidin-5-yl)-1H-pyrazolo[3,4-b]pyridine-3-carbonyl)phenyl)propane-1-sulfonamide]
2 | +++ (IC50(off-target)/IC50(MKK4) > 100) | +++ (IC50(off-target)/IC50(MKK4) > 100) | +++ (IC50(off-target)/IC50(MKK4) > 100) | < 100 | CCCS(=O)(=O)Nc1c(F)ccc(C(=O)c2n[nH]c3ncc(-c4ccncc4Cl)cc23)c1F [Example 17, N-(3-(5-(3-chloropyridin-4-yl)-1H-pyrazolo[3,4-b]pyridine-3-carbonyl)-2,6-difluorophenyl)propane-1-sulfonamide]
3 | +++ (IC50(off-target)/IC50(MKK4) > 100) | +++ (IC50(off-target)/IC50(MKK4) > 100) | +++ (IC50(off-target)/IC50(MKK4) > 100) | < 100 | CCCS(=O)(=O)Nc1c(F)ccc(C(=O)c2n[nH]c3ncc(-c4ccncc4C)cc23)c1F [Example 18, N-(2,6-difluoro-3-(5-(3-methylpyridin-4-yl)-1H-pyrazolo[3,4-b]pyridine-3-carbonyl)phenyl)propane-1-sulfonamide]
4 | +++ (IC50(off-target)/IC50(MKK4) > 100) | +++ (IC50(off-target)/IC50(MKK4) > 100) | +++ (IC50(off-target)/IC50(MKK4) > 100) | < 100 | CCCS(=O)(=O)Nc1c(F)ccc(C(=O)c2n[nH]c3ncc(-c4cnc(C(C)(C)C)nc4)cc23)c1F [Example 21, N-(3-(5-(2-(tert-butyl)pyrimidin-5-yl)-1H-pyrazolo[3,4-b]pyridine-3-carbonyl)-2,6-difluorophenyl)propane-1-sulfonamide]
5 | +++ (IC50(off-target)/IC50(MKK4) > 100) | +++ (IC50(off-target)/IC50(MKK4) > 100) | +++ (IC50(off-target)/IC50(MKK4) > 100) | < 100 | CCCS(=O)(=O)Nc1c(F)ccc(C(=O)c2n[nH]c3ncc(-c4cnc(SC)nc4)cc23)c1F [Example 22, N-(2,6-difluoro-3-(5-(2-(methylthio)pyrimidin-5-yl)-1H-pyrazolo[3,4-b]pyridine-3-carbonyl)phenyl)propane-1-sulfonamide]
6 | +++ (IC50(off-target)/IC50(MKK4) > 100) | +++ (IC50(off-target)/IC50(MKK4) > 100) | +++ (IC50(off-target)/IC50(MKK4) > 100) | < 100 | CCCS(=O)(=O)Nc1c(F)ccc(C(=O)c2n[nH]c3ncc(-c4cnc(C(C)C)nc4)cc23)c1F [Example 23, N-(2,6-difluoro-3-(5-(2-isopropylpyrimidin-5-yl)-1H-pyrazolo[3,4-b]pyridine-3-carbonyl)phenyl)propane-1-sulfonamide]
7 | +++ (IC50(off-target)/IC50(MKK4) > 100) | +++ (IC50(off-target)/IC50(MKK4) > 100) | +++ (IC50(off-target)/IC50(MKK4) > 100) | < 100 | CCCS(=O)(=O)Nc1c(F)ccc(C(=O)c2n[nH]c3ncc(-c4cccnc4)cc23)c1F [Example 27, N-(2,6-difluoro-3-(5-(pyridin-3-yl)-1H-pyrazolo[3,4-b]pyridine-3-carbonyl)phenyl)propane-1-sulfonamide]
8 | +++ (IC50(off-target)/IC50(MKK4) > 100) | +++ (IC50(off-target)/IC50(MKK4) > 100) | +++ (IC50(off-target)/IC50(MKK4) > 100) | 100 to 1000 | CCCS(=O)(=O)Nc1c(F)ccc(C(=O)c2n[nH]c3ncc(-c4cncnc4C)cc23)c1F [Example 29, N-[2,6-difluoro-3-[5-(4-methylpyrimidin-5-yl)-1H-pyrazolo[3,4-b]pyridine-3-carbonyl]phenyl]propane-1-sulfonamide]
9 | +++ (IC50(off-target)/IC50(MKK4) > 100) | +++ (IC50(off-target)/IC50(MKK4) > 100) | +++ (IC50(off-target)/IC50(MKK4) > 100) | 100 to 1000 | CCCS(=O)(=O)Nc1c(F)ccc(C(=O)c2n[nH]c3ncc(-c4cnc(C)nc4C)cc23)c1F [Example 30, N-[3-[5-(2,4-dimethylpyrimidin-5-yl)-1H-pyrazolo[3,4-b]pyridine-3-carbonyl]-2,6-difluoro-phenyl]propane-1-sulfonamide]

Row | Compound | Selectivity JNK1 [1] | Selectivity Braf [2] | Selectivity MKK7 [3] | IC50 [4] [nM]
10 | CCCS(=O)(=O)Nc1c(F)ccc(C(=O)c2n[nH]c3ncc(-c4cnc(C#N)nc4)cc23)c1F [Example 9, N-(3-(5-(2-cyanopyrimidin-5-yl)-1H-pyrazolo[3,4-b]pyridine-3-carbonyl)-2,6-difluorophenyl)propane-1-sulfonamide] | ++ (100 ≥ IC50(off-target)/IC50(MKK4) > 10) | ++ (100 ≥ IC50(off-target)/IC50(MKK4) > 10) | ++ (100 ≥ IC50(off-target)/IC50(MKK4) > 10) | 100 to 1000
11 | CCCS(=O)(=O)Nc1c(F)ccc(C(=O)c2n[nH]c3ncc(-c4cnc(-c5nnn[nH]5)nc4)cc23)c1F [Example 10, N-(3-(5-(2-(1H-tetrazol-5-yl)pyrimidin-5-yl)-1H-pyrazolo[3,4-b]pyridine-3-carbonyl)-2,6-difluorophenyl)propane-1-sulfonamide] | +++ (IC50(off-target)/IC50(MKK4) > 100) | +++ (IC50(off-target)/IC50(MKK4) > 100) | ++ (100 ≥ IC50(off-target)/IC50(MKK4) > 10) | < 100
12 | CCCS(=O)(=O)Nc1c(F)ccc(C(=O)c2n[nH]c3ncc(-c4cnc(Cl)nc4)cc23)c1F [Example 12, N-(3-(5-(2-chloropyrimidin-5-yl)-1H-pyrazolo[3,4-b]pyridine-3-carbonyl)-2,6-difluorophenyl)propane-1-sulfonamide] | +++ (IC50(off-target)/IC50(MKK4) > 100) | +++ (IC50(off-target)/IC50(MKK4) > 100) | +++ (IC50(off-target)/IC50(MKK4) > 100) | 100 to 1000
13 | CCCS(=O)(=O)Nc1c(F)ccc(C(=O)c2n[nH]c3ncc(-c4ccc(C(C)(C)C)cc4)cc23)c1F [Example 19, N-(3-(5-(4-(tert-butyl)phenyl)-1H-pyrazolo[3,4-b]pyridine-3-carbonyl)-2,6-difluorophenyl)propane-1-sulfonamide] | ++ (100 ≥ IC50(off-target)/IC50(MKK4) > 10) | +++ (IC50(off-target)/IC50(MKK4) > 100) | +++ (IC50(off-target)/IC50(MKK4) > 100) | 100 to 1000
14 | CCCS(=O)(=O)Nc1c(F)ccc(C(=O)c2n[nH]c3ncc(-c4ccc(C(=O)O)nc4)cc23)c1F [Example 28, 5-(3-(2,4-difluoro-3-(propylsulfonamido)benzoyl)-1H-pyrazolo[3,4-b]pyridin-5-yl)picolinic acid] | +++ (IC50(off-target)/IC50(MKK4) > 100) | +++ (IC50(off-target)/IC50(MKK4) > 100) | ++ (100 ≥ IC50(off-target)/IC50(MKK4) > 10) | < 100
